Five molecules from patent publication US10519114B2, “Peptidomimetics and methods of using the same” (The Regents of the University of Michigan, priority 2016, dated 2019) can be followed below.

T2 sequence (P33533 whole entry): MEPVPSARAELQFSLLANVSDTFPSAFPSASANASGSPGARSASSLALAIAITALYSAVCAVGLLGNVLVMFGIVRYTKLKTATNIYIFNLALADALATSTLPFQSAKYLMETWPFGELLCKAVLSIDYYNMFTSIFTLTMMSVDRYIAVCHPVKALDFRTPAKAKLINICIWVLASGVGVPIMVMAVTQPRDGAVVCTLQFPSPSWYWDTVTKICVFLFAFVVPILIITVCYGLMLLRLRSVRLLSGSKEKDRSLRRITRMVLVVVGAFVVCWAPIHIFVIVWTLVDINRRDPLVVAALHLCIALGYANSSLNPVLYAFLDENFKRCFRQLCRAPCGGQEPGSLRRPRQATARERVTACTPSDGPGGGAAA

In one assay the target is T1, rat μ (C6-MOR) opioid receptor (Rattus norvegicus, UniProt P33535).
T1 construct: expressed in transfected cells
T1 sequence (P33535 whole entry): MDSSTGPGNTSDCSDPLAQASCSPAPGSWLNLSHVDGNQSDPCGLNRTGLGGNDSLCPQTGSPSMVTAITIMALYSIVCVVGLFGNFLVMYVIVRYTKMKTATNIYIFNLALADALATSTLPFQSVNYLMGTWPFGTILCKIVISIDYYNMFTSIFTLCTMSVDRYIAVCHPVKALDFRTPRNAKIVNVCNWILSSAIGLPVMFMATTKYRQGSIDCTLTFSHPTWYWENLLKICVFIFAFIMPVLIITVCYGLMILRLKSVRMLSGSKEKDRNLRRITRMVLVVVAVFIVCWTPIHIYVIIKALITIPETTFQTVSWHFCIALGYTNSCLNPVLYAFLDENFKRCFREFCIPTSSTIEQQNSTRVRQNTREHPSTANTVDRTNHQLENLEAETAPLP
The experiment in a line: Radioligand binding assay, [3H]diprenorphine displacement, MOR. As to conditions: displacement of 0.2 nM [3H]diprenorphine, C6-MOR membranes; mean ± standard error. A digest of the protocol:
(§1)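 Membranes (20 μg protein) from C6 cells expressing rat μ or δ, or CHO cells expressing human κ receptor, incubated 1 h at room temperature with 0.2 nM [3H]diprenorphine and test peptide in 50 mM Tris-HCl pH 7.4. Filtration, scintillation counting; nonspecific binding with 10 μM naloxone; Ki by logistic nonlinear regression.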
As usually defined, the Ki is the equilibrium dissociation constant of an inhibitor or competing ligand from its target. For the molecule `Cc1ccc2c(c1)CN(Cc1ccc3c(c1)[C@H](NC(=O)[C@@H](N)Cc1c(C)cc(O)cc1C)CCN3)CC2` [Compound 1049], the Ki is 0.17 ± 0.06 nM.
On the same count and under the same terms, under `Cc1cc(O)cc(C)c1C[C@H](N)C(=O)N[C@H]1c2cc(Cc3ccccc3)ccc2NC[C@H]1C` [Compound 1078] stands 0.75 ± 0.03 nM; under `Cc1cc(O)cc(C)c1C[C@H](N)C(=O)N[C@@H]1CCNc2ccc(CN3CCc4ccc(F)cc4C3)cc21` [Compound 1054], 0.17 ± 0.02 nM; under `Cc1cc(O)cc(C)c1C[C@H](N)C(=O)N[C@@H]1CCNc2ccc(Sc3ccccc3)cc21` [Compound 1053], 0.45 ± 0.11 nM.
For `Cc1cc(O)cc(C)c1C[C@H](N)C(=O)N[C@@H]1CCS(=O)(=O)c2ccc(Cc3ccccc3)cc21` [Compound 1124], the Ki was 0.06 ± 0.01 nM.

A further assay addresses T2, rat δ (C6-DOR) opioid receptor (Rattus norvegicus, UniProt P33533).
T2 construct: expressed in transfected cells
The experiment in a line: Radioligand binding assay, [3H]diprenorphine displacement, DOR. The conditions noted are these: displacement of 0.2 nM [3H]diprenorphine, C6-DOR membranes; mean ± standard error. The essentials:
as §1
In turn, `Cc1ccc2c(c1)CN(Cc1ccc3c(c1)[C@H](NC(=O)[C@@H](N)Cc1c(C)cc(O)cc1C)CCN3)CC2` [Compound 1049] registered a Ki of 23.3 ± 2.51 nM.
`Cc1cc(O)cc(C)c1C[C@H](N)C(=O)N[C@H]1c2cc(Cc3ccccc3)ccc2NC[C@H]1C` [Compound 1078] registered a Ki of 2.02 ± 0.21 nM.
The molecule `Cc1cc(O)cc(C)c1C[C@H](N)C(=O)N[C@@H]1CCNc2ccc(CN3CCc4ccc(F)cc4C3)cc21` [Compound 1054] showed an inhibitory constant (Ki) of 16.7 ± 2.47 nM.
Molecule `Cc1cc(O)cc(C)c1C[C@H](N)C(=O)N[C@@H]1CCNc2ccc(Sc3ccccc3)cc21` [Compound 1053] showed a Ki of 5.08 ± 0.52 nM.
`Cc1cc(O)cc(C)c1C[C@H](N)C(=O)N[C@@H]1CCS(=O)(=O)c2ccc(Cc3ccccc3)cc21` [Compound 1124]: the Ki is 2.34 ± 1.42 nM.

For a further assay, the target named is T3, human κ (CHO-KOR) opioid receptor (Homo sapiens, UniProt P41145).
T3 construct: expressed in transfected cells
T3 sequence (P41145 whole entry): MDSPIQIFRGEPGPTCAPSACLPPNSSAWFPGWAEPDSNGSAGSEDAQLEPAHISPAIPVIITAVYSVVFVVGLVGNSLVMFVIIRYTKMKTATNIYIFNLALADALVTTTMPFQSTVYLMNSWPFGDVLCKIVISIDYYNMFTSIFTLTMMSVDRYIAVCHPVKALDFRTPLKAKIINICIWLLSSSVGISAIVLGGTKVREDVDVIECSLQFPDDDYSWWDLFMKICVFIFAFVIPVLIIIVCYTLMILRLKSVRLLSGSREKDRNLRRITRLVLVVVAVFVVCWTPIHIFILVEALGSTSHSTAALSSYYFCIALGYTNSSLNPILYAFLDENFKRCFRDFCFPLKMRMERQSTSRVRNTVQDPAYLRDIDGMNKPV
The experiment in a line: Radioligand binding assay, [3H]diprenorphine displacement, KOR. As to conditions: displacement of 0.2 nM [3H]diprenorphine, CHO-KOR membranes; mean ± standard error. The essentials: as §1
Regarding `Cc1ccc2c(c1)CN(Cc1ccc3c(c1)[C@H](NC(=O)[C@@H](N)Cc1c(C)cc(O)cc1C)CCN3)CC2` [Compound 1049], the affinity corresponds to a Ki of 11.9 ± 6.13 nM.
`Cc1cc(O)cc(C)c1C[C@H](N)C(=O)N[C@H]1c2cc(Cc3ccccc3)ccc2NC[C@H]1C` [Compound 1078] gave a Ki of 17.7 ± 2.24 nM.
In turn, `Cc1cc(O)cc(C)c1C[C@H](N)C(=O)N[C@@H]1CCNc2ccc(CN3CCc4ccc(F)cc4C3)cc21` [Compound 1054] gave an inhibition constant Ki of 9.63 ± 0.4 nM.
`Cc1cc(O)cc(C)c1C[C@H](N)C(=O)N[C@@H]1CCNc2ccc(Sc3ccccc3)cc21` [Compound 1053] registered an inhibition constant (Ki) of 10.8 ± 6.24 nM.
Molecule `Cc1cc(O)cc(C)c1C[C@H](N)C(=O)N[C@@H]1CCS(=O)(=O)c2ccc(Cc3ccccc3)cc21` [Compound 1124] came in with a Ki of 27.2 ± 5.99 nM.

Another assay has as its target T1, rat μ (C6-MOR) opioid receptor. The experiment in a line: Stimulation of [35S]GTPγS binding, MOR. Type of assay: biochemical. The conditions noted are these: [35S]GTPγS binding, C6-MOR membranes; mean ± standard error. A digest of the protocol:
(§2)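 Peptide-stimulated [35S]GTPγS (0.1 nM) binding, with 30 μM GDP, 5 mM MgCl2 and 100 mM NaCl at pH 7.4, was measured over 1 h at room temperature. Membranes came from rat MOR/DOR C6 or human KOR CHO cells. Filter-retained counts were expressed against 10 μM DAMGO, DPDPE or U69,593 respectively; maxima were fitted nonlinearly.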
In general terms: Binding of GTPγS marks nucleotide exchange on a G protein.
As usually defined, the EC50 is the concentration needed to bring the measured effect to its halfway point. `Cc1ccc2c(c1)CN(Cc1ccc3c(c1)[C@H](NC(=O)[C@@H](N)Cc1c(C)cc(O)cc1C)CCN3)CC2` [Compound 1049]: the half-maximal effective concentration (EC50) was 0.35 ± 0.11 nM.
`Cc1cc(O)cc(C)c1C[C@H](N)C(=O)N[C@H]1c2cc(Cc3ccccc3)ccc2NC[C@H]1C` [Compound 1078] returned an EC50 of 3.14 ± 1.51 nM.
For `Cc1cc(O)cc(C)c1C[C@H](N)C(=O)N[C@@H]1CCNc2ccc(CN3CCc4ccc(F)cc4C3)cc21` [Compound 1054], a half-maximal response (EC50) required 0.5 ± 0.05 nM.
Molecule `Cc1cc(O)cc(C)c1C[C@H](N)C(=O)N[C@@H]1CCNc2ccc(Sc3ccccc3)cc21` [Compound 1053] returned a concentration giving a half-maximal response (EC50) of 4.67 ± 1.44 nM.
On to `Cc1cc(O)cc(C)c1C[C@H](N)C(=O)N[C@@H]1CCS(=O)(=O)c2ccc(Cc3ccccc3)cc21` [Compound 1124], for which it took 0.72 ± 0.11 nM to reach a half-maximal effect (EC50).

Staying with this assay, now noted: [35S]GTPγS maximal stimulation compared with 10 μM standard DAMGO.
The Emax is the size of the effect at its maximum, as opposed to the concentration needed. Take `Cc1ccc2c(c1)CN(Cc1ccc3c(c1)[C@H](NC(=O)[C@@H](N)Cc1c(C)cc(O)cc1C)CCN3)CC2` [Compound 1049]: the Emax is 111 ± 4.65%.
Molecule `Cc1cc(O)cc(C)c1C[C@H](N)C(=O)N[C@H]1c2cc(Cc3ccccc3)ccc2NC[C@H]1C` [Compound 1078] came in with a maximum response (Emax) of 80.2 ± 7.89%.
In turn, `Cc1cc(O)cc(C)c1C[C@H](N)C(=O)N[C@@H]1CCNc2ccc(CN3CCc4ccc(F)cc4C3)cc21` [Compound 1054] yielded an Emax of 105 ± 4.56%.
Regarding `Cc1cc(O)cc(C)c1C[C@H](N)C(=O)N[C@@H]1CCNc2ccc(Sc3ccccc3)cc21` [Compound 1053], the Emax is 51.6 ± 6.43%.
Regarding `Cc1cc(O)cc(C)c1C[C@H](N)C(=O)N[C@@H]1CCS(=O)(=O)c2ccc(Cc3ccccc3)cc21` [Compound 1124], the Emax turned out to be 94.5 ± 3.04%.

Another assay concerns the target T2, rat δ (C6-DOR) opioid receptor. The experiment in a line: Stimulation of [35S]GTPγS binding, DOR. The assay is classed as biochemical. As to conditions: [35S]GTPγS binding, C6-DOR membranes; mean ± standard error. The essentials: as §2
For `Cc1ccc2c(c1)CN(Cc1ccc3c(c1)[C@H](NC(=O)[C@@H](N)Cc1c(C)cc(O)cc1C)CCN3)CC2` [Compound 1049], the “EC50 (nm) DOR” value is “dns”.
`Cc1cc(O)cc(C)c1C[C@H](N)C(=O)N[C@H]1c2cc(Cc3ccccc3)ccc2NC[C@H]1C` [Compound 1078] came in with an EC50 of 30.9 nM.
Still for that read-out and setting: the result for `Cc1cc(O)cc(C)c1C[C@H](N)C(=O)N[C@@H]1CCNc2ccc(CN3CCc4ccc(F)cc4C3)cc21` [Compound 1054] reads 25.9 ± 16.9 nM.
For the molecule `Cc1cc(O)cc(C)c1C[C@H](N)C(=O)N[C@@H]1CCNc2ccc(Sc3ccccc3)cc21` [Compound 1053], the “EC50 (nm) DOR” value is reported as “dns”.
For the molecule `Cc1cc(O)cc(C)c1C[C@H](N)C(=O)N[C@@H]1CCS(=O)(=O)c2ccc(Cc3ccccc3)cc21` [Compound 1124], a half-maximal effect (EC50) was put at 126 ± 72.5 nM.

The same assay, now with this note: [35S]GTPγS maximal stimulation compared with 10 μM standard DPDPE.
Regarding `Cc1ccc2c(c1)CN(Cc1ccc3c(c1)[C@H](NC(=O)[C@@H](N)Cc1c(C)cc(O)cc1C)CCN3)CC2` [Compound 1049], the “% stimulation DOR” value is “dns”.
`Cc1cc(O)cc(C)c1C[C@H](N)C(=O)N[C@H]1c2cc(Cc3ccccc3)ccc2NC[C@H]1C` [Compound 1078]: the Emax was determined as 21.4%.
On to `Cc1cc(O)cc(C)c1C[C@H](N)C(=O)N[C@@H]1CCNc2ccc(CN3CCc4ccc(F)cc4C3)cc21` [Compound 1054], for which the “% stimulation DOR” value is “dns”.
In the case of `Cc1cc(O)cc(C)c1C[C@H](N)C(=O)N[C@@H]1CCNc2ccc(Sc3ccccc3)cc21` [Compound 1053], the “% stimulation DOR” value is given as “dns”.
Regarding `Cc1cc(O)cc(C)c1C[C@H](N)C(=O)N[C@@H]1CCS(=O)(=O)c2ccc(Cc3ccccc3)cc21` [Compound 1124], the Emax was determined as 45.2 ± 5.62%.

A further assay deals with T3, human κ (CHO-KOR) opioid receptor. The experiment in a line: Stimulation of [35S]GTPγS binding, KOR. The assay is classed as biochemical. The conditions noted are these: [35S]GTPγS binding, CHO-KOR membranes; mean ± standard error. A digest of the protocol: as §2
As to `Cc1ccc2c(c1)CN(Cc1ccc3c(c1)[C@H](NC(=O)[C@@H](N)Cc1c(C)cc(O)cc1C)CCN3)CC2` [Compound 1049], the “EC50 (nm) KOR” value is recorded as “dns”.
The molecule `Cc1cc(O)cc(C)c1C[C@H](N)C(=O)N[C@H]1c2cc(Cc3ccccc3)ccc2NC[C@H]1C` [Compound 1078] returned an EC50 of 900 ± 326 nM.
`Cc1cc(O)cc(C)c1C[C@H](N)C(=O)N[C@@H]1CCNc2ccc(CN3CCc4ccc(F)cc4C3)cc21` [Compound 1054] gave an EC50 of 108 nM.
Still for that read-out and setting: under `Cc1cc(O)cc(C)c1C[C@H](N)C(=O)N[C@@H]1CCNc2ccc(Sc3ccccc3)cc21` [Compound 1053] stands 1120 nM.
`Cc1cc(O)cc(C)c1C[C@H](N)C(=O)N[C@@H]1CCS(=O)(=O)c2ccc(Cc3ccccc3)cc21` [Compound 1124] had an EC50 of 721 ± 317 nM.

The assay is the same for the next values; noted with them: [35S]GTPγS maximal stimulation compared with 10 μM standard U-69,593.
Turning to `Cc1ccc2c(c1)CN(Cc1ccc3c(c1)[C@H](NC(=O)[C@@H](N)Cc1c(C)cc(O)cc1C)CCN3)CC2` [Compound 1049], the “% stimulation KOR” value is on record as “dns”.
In turn, `Cc1cc(O)cc(C)c1C[C@H](N)C(=O)N[C@H]1c2cc(Cc3ccccc3)ccc2NC[C@H]1C` [Compound 1078] showed a maximal response (Emax) of 26.4 ± 5.75%.
On to `Cc1cc(O)cc(C)c1C[C@H](N)C(=O)N[C@@H]1CCNc2ccc(CN3CCc4ccc(F)cc4C3)cc21` [Compound 1054], for which the “% stimulation KOR” value is “dns”.
The molecule `Cc1cc(O)cc(C)c1C[C@H](N)C(=O)N[C@@H]1CCNc2ccc(Sc3ccccc3)cc21` [Compound 1053] showed a maximal effect (Emax) of 22.4%.
Same read-out and setting: under `Cc1cc(O)cc(C)c1C[C@H](N)C(=O)N[C@@H]1CCS(=O)(=O)c2ccc(Cc3ccccc3)cc21` [Compound 1124] stands 35.8 ± 2.15%.
